Results from patent publication US10370391B2, “Hydrogen peroxide-activable, anti-oxidant compounds and methods using same” (Beth Israel Deaconess Medical Center, Inc., priority 2014, dated 2019).

Columns and labels:
[1] = tested on: adult rat ventricular cardiomyocytes (ARVC); experiment: MTT cytotoxicity assay, ARVC; format: cell-based; conditions: concentrations as high as 5 mM, 24 hours of incubation
Description: FIG. 3, comprising FIGS. 3A-3B, is a set of bar graphs illustrating biocompatibility profiles of BRAP assessed by MTT assay in mouse macrophage (RAW264.7) cells (FIG. 3A) and ARVC (FIG. 3B).

iNOS = iNOS level in LPS-stimulated macrophage cells; format: cell-based, mouse
Procedure: (§1) FIG. 4, comprising FIGS. 4A-4F, is a set of graphs, bar graphs and images illustrating anti-oxidant and anti-inflammatory effects of BRAP in vitro. […] The generation of ROS was monitored by flow cytometry as an indicator of DCF fluorescence. Fluorescence was analyzed in 10,000 cells with excitation at 480 nm and emission at 530 nm. FIG. 4C: Protective effect of BRAP on H2O2— stimulated adult rat cardiomyocytes. V=vehicle, *<0.05 vs. V+H2O2 (n=4). […] (n=4/group).
(§2) The anti-inflammatory effects of BRAP on LPS-stimulated cells were investigated by measuring the level of inflammatory cytokines such as TNF-α (tumor necrosis factor-alpha) and iNOS (inducible nitric oxide synthases) (FIGS. 4E-4F). […] These observations indicate that BRAP, as well as BRAP-encapsulated PLGA microparticles, is able to scavenge overproduced H2O2 and serve as a H2O2-activable anti-oxidant. Further, the enhanced anti-oxidant activity of BRAP is derived from the combined effects of H2O2-scavenging boronic esters and HBA generation after H2O2-mediated boronate oxidation.

[2] = Water solubility of isolated BRAP; format: physicochemical; conditions: white powder as obtained
Description: H2O2-activable anti-oxidant prodrug BRAP was synthesized by reacting (4-(hydroxymethyl)phenyl)boronic acid and 2-(hydroxymethyl)-2-methylpropane-1,3-diol at room temperature (FIG. 1A). BRAP was obtained as white water-soluble powder and its chemical structure was confirmed by ^1H NMR (FIG. 1B).

[3] = tested on: mouse macrophage (RAW 264.7) cells stimulated by LPS; experiment: Intracellular ROS generation in LPS-stimulated macrophages (DCFH-DA, flow cytometry); format: cell-based; conditions: BRAP 0.25 mM, compared with 0.5 mM of HBA; LPS 1 μg/mL
Procedure: as §1
The anti-oxidant activities of BRAP were examined using mouse macrophage (RAW 264.7) and fibroblast (NIH/3T3) cells stimulated by LPS (lipopolysaccharide) (FIGS. 4A-4B). Intracellular ROS production in the stimulated cells was analyzed by flow cytometry using DCFH-DA ([…]-diacetate), which can be oxidized by the action of various intracellular oxidants such as H2O2 and hydroxyl radical to become fluorescent […] (DCF) (Kim, et al., 2011, Biomat. 32:3021; Cho, et al., 2012, Adv. Funct. Mat. 22:4038). Untreated cells have no significant DCF fluorescence.

[4] = tested on: mouse embryonic fibroblast (NIH 3T3) cells; experiment: MTT cytotoxicity assay, NIH 3T3; format: cell-based; conditions: concentrations as high as 5 mM, 24 hours of incubation
Procedure: (§3) FIG. 8, comprising FIGS. 8A-8B, is a set of bar graphs illustrating biocompatibility profiles of BRAP assessed by MTT assay in human embryonic kidney (HEK 293) cells (FIG. 8A) and mouse embryonic fibroblast (NIH 3T3) cells (FIG. 8B).
(§4) 3-(4,5-Dimethylthiazil-2yl)-2,5-diphenyltetrazolium bromide (MTT) assay was performed to evaluate the cytotoxicity of BRAP. NIH 3T3 cells were cultured at a density of 1×10^5 cells/well in a 24 well plate, and RAW 264.7 cells and HEK cells were also cultured at a density of 2×10^5 cells/well in a 24 well plate. Cells were incubated for 24 hours to reach ˜80% confluency. Cells were treated with various amount of BRAP and incubated for 24 hours. Each well was given 100 μL of MTT solution and was incubated for 4 h. 200 μL of dimethyl sulfoxide (DMSO) were added to each well to dissolve the resulting formazan crystals. After 10 min incubation, the absorbance at 570 nm was measured using a microplate reader (Biotek Instruments, Winooski, Vt.). The cell viability was determined by comparing the absorbance of BRAP treated cells that of control cells.

[5] = tested on: nitric oxide production in LPS-treated cells; experiment: Nitric oxide generation in LPS-treated cells (Griess reaction); format: cell-based; conditions: time and dose-dependent
Procedure: as §1
Nitric oxide is one of major sources of oxidative stress and a well-known pro-inflammatory mediator in the pathogenesis of inflammation (Lundberg, et al., 1997, Nature Medicine 3:30). The effects of BRAP on the generation of nitric oxide in LPS-treated cells were studied using a colorimetric assay based on the Griess reaction.

[6] = tested on: human embryonic kidney (HEK 293) cells; experiment: MTT cytotoxicity assay, HEK 293; format: cell-based; conditions: concentrations as high as 5 mM, 24 hours of incubation
Procedure: as §3, §4

TNF-α = TNF-α level in LPS-stimulated macrophage cells; format: cell-based, mouse
Procedure: as §1, §2

[7] = Cumulative toxicity, daily administration for 7 days in mice; format: in vivo, mouse; conditions: 1.5 mg/kg/day intraperitoneal
Procedure: FIG. 7, comprising FIGS. 7A-7C, is a set of images and bar graphs illustrating the safety profile of BRAP (1.5 mg/kg/day) after daily intraperitoneal administration for 7 days. FIGS. 7A-7B: Creatinine (FIG. 7A) and ALT (FIG. 7B) levels 7 days after daily BRAP administration. FIG. 7C: Representative H/E stained tissue sections of different organs 7 days after daily BRAP administration (n=4/group).
To determine the potential cumulative toxic effects of BRAP, BRAP (1.5 mg/kg/day) was administered daily for 7 days in mice.

[8] = Stability of BRAP under acidic condition (1H NMR); format: physicochemical; conditions: pH 3.0, 72 hours of incubation
Procedure: FIG. 2, comprising FIGS. 2A-2C, illustrates H2O2 scavenging effects of BRAP. FIG. 2A: Exemplary change of UV-absorbance of BRAP in the presence of H2O2. FIG. 2B: H2O2 scavenging by various concentrations of BRAP. H2O2 solution (10 μM) was mixed with HBA or BRAP for 1 min, and the chemiluminescent intensity was measured by adding diphenyl oxalate (10 mg) and rubrene (1 mg). *p<0.01, **p<0.001 relative to H2O2 only group (n=4/group). FIG. 2C: ^1H NMR spectrum of BRAP under acidic condition (pH=3.0) after 72 h.
Without wishing to be limited by any theory, BRAP could scavenge H2O2 during its H2O2-mediated boronate oxidation. This possibility was investigated using peroxalate chemiluminescence. Peroxalate chemiluminescence has been used as a versatile tool for the detection of a variety of chemical species including fluorescent molecules and H2O2 because of its excellent specificity and simplicity (Hadd, et al., 1999, J. Chem. Educ. 76:1237; Lee, et al., 2011, Bull. Korean Chem. Soc. 32:2187). […] A majority of H2O2 was scavenged by the same concentration of BRAP within 1 minutes.

CC1(CO)COB(c2ccc(CO)cc2)OC1 [BRAP, (4-(5-(hydroxymethyl)-5-methyl-1,3,2-dioxaborinan-2-yl)phenyl)methanol]
cytotoxicity (MTT) [1]: no significant cytotoxicity | iNOS level (iNOS): significantly suppressing | water solubility [2]: water-soluble | inhibition of LPS-induced ROS generation [3]: significantly stronger inhibitory effects | cytotoxicity (MTT) [4]: no significant cytotoxicity | inhibition of nitric oxide production [5]: inhibitory effects | cytotoxicity (MTT) [6]: no significant cytotoxicity | TNF-α level (TNF-α): significantly suppressing | histology of different organs (H/E) [7]: no significant histological evidence of accumulated toxicity | serum test for hepatic function (ALT) [7]: no significant abnormalities | serum test for renal function (creatinine) [7]: no significant abnormalities | stability in acidic environment [8]: not influenced
